Laboratory results: US20100092459A1, “Protein Complex and Uses” (IMPERIAL INNOVATIONS LIMITED, priority 2006, published 2010)

What was measured:
[1] = system: FGF-2-mediated ERK phosphorylation in H510 cells; assay: FGF-2-induced ERK phosphorylation in H510 cells, Western blot for biphospho-ERK; type: cell-based; conditions: for inhibition of FGF-2-mediated ERK phosphorylation: dose range of inhibitor 1 h, then FGF-2 0.1 ng/ml 5 min
Description: (B) Representative blots from (A) were quantified by optical densitometry normalised for actin. (C) H69 cells transfected with empty (V) or a wt-PKCε-GFP expressing vector (a) were analysed for phospho-ERK, XIAP and Bcl-XL levels. (D) Baseline level cell death in V-H69 and ε-H69 cells growing in 10% FCS was determined by flow cytometry using Annexin V staining. (E) ε-H69 and V-H69 cells in SFM were treated with or without 0.1 μM etoposide (VP-16) and cell numbers determined 96 h later. Conditions were performed in quadruplicates and the average cell number±SEM represented as fold over untreated. (F) H510 cells in SFM were treated with or without 40 μM ε-TITAT, ΕTI-TITAT or TITAT for 4 h prior to stimulation for 5 min with or without FGF-2 (0.1 ng/ml). Cell lysates were Western-blotted for biphospho-ERK. […] (G) H510 cells transfected with PKCε or scrambled (sc) siRNA were stimulated with or without FGF-2. Lysates were analysed for PKCε levels and Erk phosphorylation. (A, C, F and G) Lamin B and actin immunodetection were used as loading controls.
(A) H510 cells were treated with or without a dose range of GF109203X (GF), Gö6976 (Go), Hispidin (His), BAPTA (BA) or Rottlerin (Rot) for 1 h prior to stimulation for 5 min in the presence or absence of either FGF-2 (0.1 ng/ml) or PDBu (400 nM). Cell lysates were analysed by SDS-PAGE/Western-blotting for biphospho-ERK. Lamin immunodetection was used as loading control. (B-top panel) Equal protein amounts from SCLC cell lines were compared for their PKC expression pattern. (B-bottom panel) SCLC cells in SFM were stimulated with and without FGF-2 for 5 min and cell lysates analysed by SDS-PAGE/WB for Erk phosphorylation. PKCε and PKCα levels (ODs from left panel) were compared to the ability to phosphorylate Erk in these SCLC cell lines. Results shown are representative of at least three independent experiments.
The PKCε translocation inhibitor ([…]) and PKCα translocation inhibitor ([…]) (Souroujon and Mochly-Rosen, 1998; Yedovitzky et al., 1997) were made cell-permeable by linkage to the HIV-derived TITAT sequence ([…]). H510 cells in RPMI were incubated for 4 h with 40 μM of either translocation inhibitor peptides or TITAT prior to further treatments. The activity of these inhibitors on ERK phosphorylation was assessed by Western Blotting.

[2] = system: Bcl-XL and XIAP; assay: Bcl-XL and XIAP expression in HEK293Tet cells, Western blot; type: cell-based
Description: (§1) HEK 293-Tet clones transfected with an inducible vector for kinase active S6K1 (1KA), S6K2 (2KA) or empty vector were treated with tetracycline for 6 h prior to (A) Western-blotting (WB) as indicated or (B) S6K1 or 2 kinase assay using an S6 peptide as substrate. (C) V-, 1KA- and 2KA-293 cells were incubated in the absence of tetracycline with (white bars) or without (hatched bars) serum for 18 h or with tetracycline in the absence of serum (black bars) and the proportion of apoptotic cells determined using annexin V staining. (D) Cell lysates from 2KA and 1KA-293 cells treated with or without tetracycline, FGF-2 and PD098059 were analysed for Bcl-XL expression and S6 phosphorylation. (E) HEK 293 cells incubated with or without FGF-2 (4h) prior to serum deprivation (18 h) were analysed by annexin V staining. (A, D, F) Actin and lamin B immunodetections were used as a loading control. (B, C, E) Results represent the average of triplicates±SEM. (A-E) Results are representative of at least three independent experiments.
(A and B) HEK293 expressing tetracycline-inducible kinase-active S6K1 (1KA) or 2 (2KA) were treated with or without tetracycline for 6 h (B) or the time indicated (A). (A) Cells were grown in the absence of FCS and a cell death time-course performed. Cell death was assessed microscopically by determining Trypan blue positivity. Results shown are averages±SEM of triplicates. (C) HEK293 cells were treated for 1 h with or without 25 μM PD098059 prior to stimulation with FGF-2 for 4 h. (B and C) Cell lysates were analysed by SDS-PAGE/WB for the levels of Bcl-XL and XIAP. Actin was used as a loading control. Results shown are representative of at least three independent experiments.

[3] = system: HEK293Tet cells; assay: Survival of HEK293Tet cells after serum deprivation (annexin V); type: cell-based; conditions: FGF-2 4 h before serum deprivation 18 h
Description: as §1
SCLC cells (5×10^4 cells/ml SFM) were pre-treated with or without 0.1 ng/ml FGF-2 for 4 h prior to treatment with 0.1 μM etoposide and incubated at 37° C. for 96 h. […] The proportion of cell death was either determined by trypan blue exclusion or by Annexin V staining and flow cytometry as previously described (Pardo et al., 2002).

[4] = system: S6K2; assay: S6K2 immune complex kinase assay, FGF-2-stimulated H510 cells; type: cell-based; conditions: peptide 4 h
Description: (§2) Cell lysates were subjected to immunoprecipitation with a PKCε antibody prior to Western blotting (WB) for the molecules indicated. (A-lower panel) Total cell lysate was Western-blotted as indicated. (B and E) […] was immunoprecipitated from V-H69 and ε-H69 (B) or […] cells (E) following 4 h treatment with or without ε[…] and TITAT. Immunoprecipitates were subjected to in-vitro kinase assays with S6-peptide as a substrate and the results shown are average cpm±SEM from triplicates of a representative experiment. (C) The phosphorylation of the endogenous V-H69 and -H69 cells in SFM were washed three times in RPMI 1640, and 2×10^6 cell aliquots were incubated in this medium for 30 min at 37° C. Cells were treated in the presence or absence of 40 μM ([…] or TITAT peptide for 4 h as indicated, prior to performing an immune complex kinase assay for S6K1 or […] as described (Pardo et al., 2001). In separate experiments, HEK293Tet cells expressing tetracycline-inducible kinase active cytoplasmic forms of S6K1 or […] were incubated with or without tetracycline prior to lysis and immune complex kinase assay.

[5] = system: S6K2; assay: S6K2 immune complex kinase assay (S6-peptide substrate), ε-H69 cells; type: cell-based; conditions: ε-H69 cells (PKCε over-expressing), 40 μM peptide 4 h
Description: as §2

[6] = target: S6K2 (human) (UniProt Q9UBS0)
[7] = system: S6 protein; assay: Phosphorylation of endogenous S6 protein in ε-H69 cells (phospho-S6 antibody); type: cell-based; conditions: ε-H69 cells in SFM
Description: S6 protein from V-H69 and ε-H69 cells in SFM treated with or without εTI-TITAT was determined using a phospho-S6 antibody. (D and F) PKCε KO MEFs re-expressing (KO+ε) or not (KO) […] were (D) grown in 10% FCS and analysed for phospho-S6 levels or (F) stimulated with or without FGF-2 and FCS prior to S6K2 immunoprecipitation and Western blotted as indicated. (C and D) Lamin B and actin immunodetection were used as a loading control. (A-F) Results shown are representative of at least 3 independent experiments.

[8] = 40 μM peptide 4 h, FGF-2 0.1 ng/ml 5 min

O=C(O)CN(CC(=O)O)c1ccccc1OCCOc1ccccc1N(CC(=O)O)CC(=O)O [BAPTA]
inhibition of FGF-2-mediated ERK phosphorylation [1]: Only GF109203X and Rottlerin inhibited

CN(C)CCCn1cc(C2=C(c3c[nH]c4ccccc34)C(=O)NC2=O)c2ccccc21 [GF109203X]
inhibition of FGF-2-mediated ERK phosphorylation [1]: inhibited

Cn1c2ccccc2c2c3c(c4c5ccccc5n(CCC#N)c4c21)CNC3=O [Gö6976]
inhibition of FGF-2-mediated ERK phosphorylation [1]: Only GF109203X and Rottlerin inhibited

O=c1cc(O)cc(/C=C/c2ccc(O)c(O)c2)o1 [Hispidin]
inhibition of FGF-2-mediated ERK phosphorylation [1]: Only GF109203X and Rottlerin inhibited

COc1cccc(-c2cc(=O)c3ccccc3o2)c1N [PD098059]
block of FGF-2-induced Bcl-XL and XIAP expression ([2]; HEK293 cells, 25 μM PD098059 1 h before FGF-2 4 h): could be blocked | suppression of increased Bcl-XL and XIAP expression ([2]; KA-S6K2 HEK293Tet cells, tetracycline induced): could not be suppressed

CC(=O)c1c(O)c(C)c(O)c(Cc2c(O)c3c(c(C(=O)/C=C/c4ccccc4)c2O)OC(C)(C)C=C3)c1O [Rottlerin]
inhibition of FGF-2-mediated ERK phosphorylation [1]: inhibited

FGF-2: fibroblast growth factor-2, purchased from Calbiochem
survival [3]: increased survival | Bcl-XL and XIAP expression ([2]; HEK293Tet cells stimulated with FGF-2): increased

TITAT (GRKKRRQRRRPPQ)
inhibition of FGF-2-induced S6K2 activation [4]: but not by αTI-TITAT or TITAT | inhibition of ERK phosphorylation in response to FGF-2 (in words) [1, 8]: neither αTI-TITAT nor TITAT inhibited | effect on basal S6K2 activity [5]: no effect

wt-PKCε-GFP (enzyme)
basal S6K2 activity (immune complex kinase assay with S6-peptide) [6]: 2 fold

αTI-TITAT (SLNPEWNETGRKKRRQRRRPPQ)
inhibition of FGF-2-induced S6K2 activation [4]: but not by αTI-TITAT or TITAT | inhibition of ERK phosphorylation in response to FGF-2 (in words) [1, 8]: neither αTI-TITAT nor TITAT inhibited | effect on basal S6K2 activity [5]: no effect

εTI-TITAT (EAVSLKPTGRKKRRQRRRPPQ)
effect on increased S6 phosphorylation [7]: prevented | inhibition of FGF-2-induced S6K2 activation [4]: inhibited | inhibition of ERK phosphorylation in response to FGF-2 [1, 8]: 60% | effect on basal S6K2 activity [5]: lowered S6K2 activity in ε-H69 cells to a level comparable to that found in V-H69 cells
